Like-named read-outs stand apart in the source and are kept apart here.
Key:
Assay type in all cases: cell-based
Azotobacter vinelandii = system: Azotobacter vinelandii
Method: (§1) Bacteria strains, nitrifiers, phosphorus solubilizers and antagonists for pathogens: • a) Azotobacter vinelandii • b) Bacillus megaterium • c) Bacillus subtillis • d) Bacillus thuringiensis • e) Clostridium pasteuranium • f) Rhizobium Preparation for Stage Development • 1. Glass material is sterilized in an autoclave. • 2. The required amount of growth media is prepared, DFA Agar, Malt Agar (Corn Agar) and (PDA) to obtain viable colonies. • 3. Lethal dose (LD) applied to a hectare is established, for thiodicarb as well as bifenthrin. 10 Petri dishes are prepared with 0.1 LD of thiodicarb of bifenthrin. Dishes are incubated at 25° C. for 72 hours with cold light.
(§2) Methodology • a. Petri dishes are placed inside the laminar flow chamber along with the diluted samples, to seed microorganisms in the dishes, a one ml sample of the strain is taken with an automated pipette, 10^−1 and 10^−2 solutions are performed and each solution is homogenized. • b. […] Inoculated dishes are incubated for 72 hours and the bacteria growth will be recorded, the product concentration impact is determined over the plate growth (12 hours of incubation). • e. […] The colony diameter is determined using a graduated ruler, data is recorded subtracting the diameter of the seeded dish, from which the effect over the mycelial growth will be determined compared to the control (not poisoned MA, denominated as percentage of inhibition of radial growth (PIRG %). • h. Progress is recorded daily and after 7 days analysis of an acceptable coverage is performed, if not, the procedure is repeated as many times as required. • i. From the 10 Petri dishes for each microorganism, the one with the lowest mortality is the one that will continue with the following study. • j. […]
(§3) Characteristics for this procedure were recorded during all stages through the following indicators: • a. […] Percentage of inhibition measured in Number of CFU/mm • c. […]

Bacillus megaterium = test: Stagewise adaptation on growth media with thiodicarb / bifenthrin, mortality; conditions: for Resistant to: (FINAL): after the selective process, 40 stages
Method: as §1
Methodology • a. Petri dishes are placed inside the laminar flow chamber along with the diluted samples, to seed microorganisms in the dishes, a one ml sample of the strain is taken with an automated pipette, 10^−1 and 10^−2 solutions are performed and each solution is homogenized. • b. Having the petri dishes with the sterile and cold growth media, it is homogenized with 6 right to left movements, 6 clockwise movements, 6 counterclockwise movements and 6 front to back movements over a flat horizontal surface until the inoculum is completely integrated into the media, stand until it solidifies and each dish is covered with parafilm to avoid contamination during incubation. • c. Dishes with thiodicarb and Bifenthrin are placed inside the incubator at 25° C. for 72 hours with a cold light lamp. • d. Inoculated dishes are incubated for 72 hours and the bacteria growth will be recorded, the product concentration impact is determined over the plate growth (12 hours of incubation). • e. The residual impact of the product is reviewed after 7 days in the malt agar and PDA agar medias. • f. […] The colony diameter is determined using a graduated ruler, data is recorded subtracting the diameter of the seeded dish, from which the effect over the mycelial growth will be determined compared to the control (not poisoned MA, denominated as percentage of inhibition of radial growth (PIRG %). • h. Progress is recorded daily and after 7 days analysis of an acceptable coverage is performed, if not, the procedure is repeated as many times as required. • i. From the 10 Petri dishes for each microorganism, the one with the lowest mortality is the one that will continue with the following study. • j. […]
as §3
(§4) For each species, stages analyzing times required to cover the entire field were performed. Once this time was determined, they were left to rest for 10 days to be later subject to the following protocol: […]

Bacillus subtillis = test: as above; conditions: for Resistant to: (FINAL): after the adaptation process, 40 stages
Method: as §1
(§5) Methodology • a. Petri dishes are placed inside the laminar flow chamber along with the diluted samples, to seed microorganisms in the dishes, a one ml sample of the strain is taken with an automated pipette, 10^−1 and 10^−2 solutions are performed and each solution is homogenized. • b. Having the petri dishes with the sterile and cold growth media, it is homogenized with 6 right to left movements, 6 clockwise movements, 6 counterclockwise movements and 6 front to back movements over a flat horizontal surface until the inoculum is completely integrated into the media, stand until it solidifies and each dish is covered with parafilm to avoid contamination during incubation. • c. Dishes with thiodicarb and Bifenthrin are placed inside the incubator at 25° C. for 72 hours with a cold light lamp. • d. Inoculated dishes are incubated for 72 hours and the bacteria growth will be recorded, the product concentration impact is determined over the plate growth (12 hours of incubation). • e. The residual impact of the product is reviewed after 7 days in the malt agar and PDA agar medias. • f. If there is no growth over 10%, the process is repeated until a mortality under 90% is obtained. • g. The colony diameter is determined using a graduated ruler, data is recorded subtracting the diameter of the seeded dish, from which the effect over the mycelial growth will be determined compared to the control (not poisoned MA, denominated as percentage of inhibition of radial growth (PIRG %). • h. Progress is recorded daily and after 7 days analysis of an acceptable coverage is performed, if not, the procedure is repeated as many times as required. • i. From the 10 Petri dishes for each microorganism, the one with the lowest mortality is the one that will continue with the following study. • j. The study is performed again using this percentage until coverage increases and so on, the addition of thiodicarb and bifenthrin is alternated with the LD in intervals of 0.1 LD; all these experiments have been designed with the experimental strains and a control. • k. With the data obtained from the bacterial growth, the percentage of inhibition of gradual growth is obtained, the data is transformed for its analysis with the expression 2 arc sin. A two-way classification analysis of variance is applied and later the Turkey test is performed using a 5% probability.
(§6) Characteristics for this procedure were recorded during all stages through the following indicators: • a. Growth speed • b. Percentage of inhibition measured in Number of CFU/mm • c. Percentage of poison resistance
as §4

Bacillus thuringiensis = test: as above; conditions: for Resistant to: (FINAL): after the adaptation process, 48 stages
Method: as §1, §5, §6, §4

Clostridium pasteuranium = test: as above; conditions: for Resistant to: (FINAL): after the selective process, 40 stages
Method: as §1, §5, §6, §4

Rhizobium sp = test: as above; conditions: for Resistant to: (FINAL): after the adaptation process, 40 stages
Method: as §1, §2, §3

[1] = bifenthrin 0.9 LD (0.00000042 gr), stages E-37 and E-38
[2] = thiodicarb 0.9 LD (0.00016 gr), stages E-33 and E-34
[3] = thiodicarb 0.2 LD (0.000035 gr), stages E-3 and E-4
[4] = thiodicarb 0.1 LD (0.0000175 gr), stage E-2

Cc1c(COC(=O)[C@@H]2[C@H](/C=C(\Cl)C(F)(F)F)C2(C)C)cccc1-c1ccccc1 (racemic) [bifenthrin, 2-methyl biphenyl-3-ilmetil(2)-(1RS,3RS)-3-(2-chlorine 3,3,3-trifluoropropene)-2,2-dimethyl-cyclo-propane-carboxylate]
mortality (Azotobacter vinelandii; bifenthrin 0.2 LD (0.00000012 gr), stages E-7 and E-8): 60% | mortality (Azotobacter vinelandii; [1]): 10% | Resistant to: (FINAL) (Bacillus megaterium): 1 LD of thiodicarb | mortality (Bacillus megaterium; bifenthrin 0.1 LD (0.00000006 gr), stages E-5 and E-6): 63% | Resistant to: (FINAL) (Bacillus subtillis): 1 LD of thiodicarb | mortality (Bacillus subtillis; bifenthrin 0.3 LD (0.00000018 gr), stages E-13 and E-14): 65% | Resistant to: (FINAL) (Bacillus thuringiensis): 1.2 LD of thiodicarb | Resistant to: (FINAL) (Clostridium pasteuranium): 1 DL of thiodicarb | mortality (Clostridium pasteuranium; [1]): 10% | Resistant to: (FINAL) (Rhizobium sp): 1 DL of thiodicarb

CS/C(C)=N\OC(=O)N(C)SN(C)C(=O)O/N=C(\C)SC [thiodicarb]
mortality (Azotobacter vinelandii; [2]): 10% | Resistant to: (FINAL) (Bacillus megaterium): 1 LD of thiodicarb | mortality (Bacillus megaterium; [3]): 65% | Resistant to: (FINAL) (Bacillus subtillis): 1 LD of thiodicarb | mortality (Bacillus subtillis; thiodicarb 0.1 LD (0.0000175 gr), stage E-1, until day 68 of incubation): 82% | mortality (Bacillus subtillis; [4]): 80% | Resistant to: (FINAL) (Bacillus thuringiensis): 1.2 LD of thiodicarb | mortality (Bacillus thuringiensis; [2]): 30% | mortality (Bacillus thuringiensis; thiodicarb 1 LD (0.00018 gr), stages E-35 and E-36): 25% | mortality (Bacillus thuringiensis; thiodicarb 1.2 LD (0.00022 gr), stages E-43 and E-44): 14% | Resistant to: (FINAL) (Clostridium pasteuranium): 1 DL of thiodicarb | mortality (Clostridium pasteuranium; thiodicarb 0.1 LD (0.0000175 gr), stage E-1, until incubation day 72): 87% | mortality (Clostridium pasteuranium; [4]): 84% | Resistant to: (FINAL) (Rhizobium sp): 1 DL of thiodicarb | mortality (Rhizobium sp; [3]): 60%

From patent US11470848B2, “Consortium of (carbamate) thiodicarb-resistant and (pyrethroid) biphenthrin-resistant bacteria and use thereof in liquid fertilizers” (priority 2018, dated 2022)
